Test results from BigSolDB 2.1.

COc1cc(Cc2cnc(N)nc2N)cc(OC)c1OC
Details | solubility (mole fraction)
in THF, 276.05 K | 0.000608
in THF, 281.81 K | 0.000714
in THF, 287.31 K | 0.000857
in THF, 292.65 K | 0.000987
in THF, 298.08 K | 0.00117
in THF, 303.12 K | 0.00137
in THF, 306.95 K | 0.00155
in THF, 311.69 K | 0.00178
in THF, 316.74 K | 0.00208
in THF, 321.34 K | 0.00244
in THF, 326.91 K | 0.00296
in THF, 333.87 K | 0.00377
in acetone, 276.94 K | 0.000456
in acetone, 282.12 K | 0.00054
in acetone, 288.62 K | 0.000664
in acetone, 292.94 K | 0.00076
in acetone, 297.96 K | 0.00089
in acetone, 304.17 K | 0.00108
in acetone, 309.34 K | 0.00128
in acetone, 314.34 K | 0.00149
in acetone, 319.07 K | 0.00173
in acetone, 323.51 K | 0.00199
in ethanol, 281.15 K | 0.000356
in ethanol, 287.25 K | 0.000461
in ethanol, 292.64 K | 0.000545
in ethanol, 297.95 K | 0.000681
in ethanol, 302.05 K | 0.000833
in ethanol, 307.85 K | 0.00105
in ethanol, 311.35 K | 0.00124
in ethanol, 315.24 K | 0.00151
in ethanol, 318.85 K | 0.00177
in ethanol, 323.95 K | 0.00223
in ethanol, 326.65 K | 0.00255
in ethanol, 330.66 K | 0.00309
in ethanol, 335.25 K | 0.00388
in isopropanol, 277.17 K | 0.000109
in isopropanol, 282.82 K | 0.000156
in isopropanol, 288.28 K | 0.000202
in isopropanol, 293.13 K | 0.000255
in isopropanol, 297.57 K | 0.000322
in isopropanol, 304.04 K | 0.000468
in isopropanol, 309.36 K | 0.000644
in isopropanol, 315.13 K | 0.00091
in isopropanol, 319.53 K | 0.00117
in isopropanol, 324.04 K | 0.00151
in isopropanol, 328.37 K | 0.0019
in isopropanol, 333.64 K | 0.00247
in methanol, 277.02 K | 0.000828
in methanol, 282.85 K | 0.001
in methanol, 288.09 K | 0.0012
in methanol, 293.03 K | 0.00143
in methanol, 298.17 K | 0.00173
in methanol, 304.24 K | 0.00217
in methanol, 309.36 K | 0.00265
in methanol, 314.12 K | 0.0032
in methanol, 319.06 K | 0.00392
in methanol, 323.53 K | 0.00471
in methanol, 328.15 K | 0.00571
in methanol, 333.73 K | 0.0072
in n-butanol, 276.35 K | 0.000157
in n-butanol, 282.63 K | 0.000254
in n-butanol, 287.96 K | 0.000359
in n-butanol, 292.84 K | 0.000473
in n-butanol, 298.46 K | 0.000635
in n-butanol, 303.72 K | 0.000844
in n-butanol, 308.84 K | 0.00106
in n-butanol, 313.36 K | 0.00133
in n-butanol, 318.45 K | 0.00175
in n-butanol, 323.73 K | 0.00235
in n-butanol, 329.21 K | 0.00306
in n-butanol, 333.73 K | 0.00386
in n-propanol, 277.35 K | 0.000278
in n-propanol, 283.63 K | 0.000328
in n-propanol, 288.97 K | 0.000414
in n-propanol, 294.05 K | 0.000531
in n-propanol, 298.93 K | 0.000677
in n-propanol, 303.84 K | 0.000866
in n-propanol, 308.44 K | 0.00109
in n-propanol, 314.54 K | 0.00148
in n-propanol, 319.17 K | 0.00186
in n-propanol, 323.48 K | 0.00231
in n-propanol, 328.57 K | 0.00298
in n-propanol, 334.15 K | 0.00392
in sec-butanol, 276.85 K | 0.000153
in sec-butanol, 283.66 K | 0.000179
in sec-butanol, 290.08 K | 0.0003
in sec-butanol, 294.67 K | 0.000422
in sec-butanol, 298.45 K | 0.000562
in sec-butanol, 303.74 K | 0.000758
in sec-butanol, 308.84 K | 0.00101
in sec-butanol, 313.35 K | 0.00131
in sec-butanol, 318.46 K | 0.00172
in sec-butanol, 323.56 K | 0.00231
in sec-butanol, 328.66 K | 0.0029
in sec-butanol, 333.74 K | 0.00377
